The text below walks through data of ChEMBL document CHEMBL1795287, “Efficient synthesis of 3-O-thia-cPA and preliminary analysis of its biological activity toward autotaxin” (Bioorg Med Chem Lett, 2011).

Test [1] deals with Autotaxin (Homo sapiens) (UniProt Q13822). The test can be described thus: Inhibition of human ATX catalytic activity in MDA-MB-231 cells using conditioned medium at 10 uM. The format is cell-based.
The target is the same in test [2]. The test can be described thus: Inhibition of human ATX catalytic activity in MDA-MB-231 cells using conditioned medium. The format is cell-based.

In general, inhibition refers to the share of the control response that was lost under treatment. The molecule `CCCCCC/C=C\CCCCCCCC(=O)OCC1COP(=O)(O)C1` (stereo not given) displayed an inhibition in test [1] of 66%.
Turning to `CCCCCCCC/C=C\CCCCCCCC(=O)OCC1COP(=O)(O)O1` (stereo not given), the inhibition in test [1] worked out at 25%.
In the case of `CCCCCC/C=C\CCCCCCCC(=O)OCC1CSP(=O)(O)O1` (racemic), the values for the inhibition result in test [2] and in test [1] were “Dose-dependent effect” and 55%, respectively.
As for `CCCCCCCC/C=C\CCCCCCCC(=O)OCC1CSP(=O)(O)O1` (racemic), the inhibition result in test [2] was “Dose-dependent effect”; in test [1], 55%.
As for `CCCCCCCCCCCCCCCC(=O)OCC1CSP(=O)(O)O1` (racemic), the inhibition result in test [2] is “Dose-dependent effect”; in test [1], 55%.
The matching figures for `CCCCCCCCCCCCCCCCCC(=O)OCC1CSP(=O)(O)O1` (racemic): “Dose-dependent effect” and 55%.
